Assay results reported in PubChem BioAssay (NCI).
Several values for one entry are separate records, joined by “and”; a condition that tells them apart may be missing. Identical values can stand only once.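 These data come from cells grown in 96-well plates and exposed to compound for 48 hours at five concentrations. The concentration for 50% growth inhibition is given as GI50. TGI marks complete inhibition of growth.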

Legend:
Test in all cases: DTP human tumour cell line panel, 48 h
[1] = test system: SK-MEL-5 melanoma
[2] = test system: ACHN renal
[3] = test system: NCI-H226 lung
[4] = test system: HL-60(TB) leukemia
[5] = test system: HT29 colon
[6] = test system: SK-MEL-28 melanoma
[7] = test system: 786-0 renal
[8] = test system: MDA-MB-435
[9] = test system: SF-295 CNS
[10] = test system: HOP-92 NSCLC

| Compound | TGI [1] | TGI [2] | TGI [3] | TGI [4] | TGI [5] | TGI [6] | TGI [7] | TGI [8] | TGI [9] | TGI [10] | GI50 [1] | GI50 [2] | GI50 [3] | GI50 [4] | GI50 [5] | GI50 [6] | GI50 [7] | GI50 [8] | GI50 [9] | GI50 [10] |
| --- | --- | --- | --- | --- | --- | --- | --- | --- | --- | --- | --- | --- | --- | --- | --- | --- | --- | --- | --- | --- |
| O=C1CCCC2=C(N1)C(=O)C=CC2=O | 57.1 µM | 55.1 µM | > 68.5 µM | 73.5 µM | 59 µM | 60.4 µM | 57.5 µM | 32.7 µM | 56.4 µM | 38.8 µM | – | – | – | – | – | – | – | – | – | – |
| CN(C)CCCN(c1nc(C(Cl)(Cl)Cl)ns1)c1nc(C(Cl)(Cl)Cl)ns1 | 2.95 µM | 3.53 µM | 3.42 µM | 3.43 µM | 3.37 µM | 3.5 µM | 3.3 µM | 4.54 µM | 3.6 µM | 5.33 µM | 1.6 µM | 1.77 µM | 1.72 µM | 1.52 µM | 1.69 µM | 1.9 µM | 1.72 µM | 2.05 µM | 1.7 µM | 1.64 µM |
| CCOC(=O)c1c(C)nc2ccc(Cl)cc2c1-c1ccccc1 | 29 µM | 35 µM | 39.7 µM | 41 µM | 75.3 µM | 52.4 µM | 35.1 µM | 68.4 µM | 46.8 µM | 20.8 µM | 14.5 µM | 17.1 µM | 19.2 µM | 14.2 µM | 16.1 µM | 19.6 µM | 17 µM | 23.9 µM | 19.4 µM | 1.52 µM |
| CNNCc1ccc(C(=O)NC(C)C)cc1 | > 500 µM | > 500 µM | > 500 µM | > 500 µM | > 500 µM | > 500 µM | > 500 µM | > 500 µM | > 500 µM | 391 µM and > 500 µM | > 500 µM | – | > 500 µM | – | – | – | > 500 µM | – | – | 459 µM |
| S=c1nc2[nH]ncc2c(N/N=C/c2ccccc2)[nH]1 | > 100 µM | > 100 µM | > 100 µM | > 100 µM | – | > 100 µM | > 100 µM | > 100 µM | > 100 µM | > 100 µM | 41.3 µM | 63.3 µM | > 100 µM | > 100 µM | – | > 100 µM | > 100 µM | > 100 µM | > 100 µM | > 100 µM |
| C/C(CC(=O)NNc1ccc([N+](=O)[O-])cc1)=N\Nc1ccc([N+](=O)[O-])cc1 | 5.42 µM | > 100 µM | > 100 µM | > 100 µM | > 100 µM | > 100 µM | > 100 µM | > 100 µM | 18.4 µM | 28.3 µM | 2.13 µM | 5.45 µM | 17.9 µM | 2.48 µM | 7.66 µM | 31.5 µM | 10.4 µM | 4.56 µM | 2.96 µM | 7.94 µM |
| O=C1C(=O)c2ccccc2-c2ccccc21 | 2.79 µM | 2.84 µM | 3.18 µM | 4.11 µM | > 100 µM | 3.24 µM | 3.35 µM | 0.416 µM | 3.23 µM | 2.93 µM | 1.39 µM | 1.44 µM | 1.72 µM | 1.56 µM | 3.4 µM | 1.77 µM | 1.83 µM | 0.198 µM | 1.76 µM | 1.46 µM |
| O=[N+]([O-])c1cc(CCl)ccc1CCl | 11.5 µM | 3.09 µM | 11 µM | – | 3.22 µM | 5.01 µM | 3.34 µM | 5.05 µM | 19.7 µM | 3.37 µM | – | – | – | – | – | – | – | – | – | – |
| O=c1cc(-c2ccc(Cl)cc2)[nH]c2ncccc12 | > 100 µM | > 100 µM | > 100 µM | 41.6 µM | > 100 µM | > 100 µM | > 100 µM | 22.4 µM | > 100 µM | > 100 µM | 29 µM | – | – | 16.6 µM | – | – | 34.1 µM | 5.96 µM | 40.7 µM | – |
| Clc1cc(Cl)c(Cl)c(-c2nc(-c3cccnc3)cs2)c1 | > 100 µM | 72.3 µM | 85.8 µM | > 100 µM | > 100 µM | 34.8 µM | 29.8 µM | 29.2 µM | 70.4 µM | 48.1 µM | 23.6 µM | 22.2 µM | 27.4 µM | 14.3 µM | 12.1 µM | 12.9 µM | 12.9 µM | 3.39 µM | 26.2 µM | 15.4 µM |
| CCOC(=O)/C(=C/c1ccc([N+](=O)[O-])cc1)C(=O)c1ccccc1 | 3.62 µM | 4.35 µM | 6.45 µM | 5.87 µM | 3.83 µM | 4.73 µM | 3.45 µM | 5.37 µM | 8.5 µM | 4.45 µM | 1.94 µM | 2.03 µM | 2.57 µM | 2.34 µM | 2.05 µM | 2.1 µM | 1.82 µM | 2.23 µM | 2.78 µM | 2.01 µM |
| O=C(O)c1ccc2c(c1Nc1ccccc1)C(=O)c1ccccc1C2=O | > 100 µM | > 100 µM | > 100 µM | > 100 µM | > 100 µM | > 100 µM | > 100 µM | > 100 µM | > 100 µM | > 100 µM | 73.1 µM | 39.7 µM | 24.2 µM | 79.3 µM | 98.4 µM | > 100 µM | 39.4 µM | 48.1 µM | 20.3 µM | 27.9 µM |
| Oc1ccc(CNCc2ccccc2)c2cccnc12 | – | 22.9 µM | 66.7 µM | 1.05 µM | > 100 µM | > 100 µM | > 24.7 µM | > 100 µM | 61.4 µM | 0.57 µM | – | – | – | – | – | – | – | – | – | – |
| Cc1ccc(S(=O)(=O)/N=c2\ssc(Nc3ccccc3)c2Cl)cc1 | 12.4 µM | 22.5 µM | > 50 µM | > 50 µM | > 50 µM | – | > 50 µM | 22.1 µM | 12.4 µM | > 50 µM | 6.2 µM | 9.58 µM | 19.2 µM | 15.5 µM | 17.2 µM | – | 27.7 µM | 8.41 µM | 1.15 µM | 7.43 µM |
